Reference: patent publication US7589080B2, “β-cyclodextrin compositions, and use to prevent transmission of sexually transmitted diseases” (priority 2000, dated 2009)

Tests used:
vaginal epithelium = assay: Vaginal epithelial toxicity (ethidium bromide homodimer-1 staining); type: in vivo, CF-1 mice; conditions: 1% (w/v), intravaginal, 15 min
Method: CF-1 mice were pretreated with 2.5 mg progestin; one week later, three groups of three mice each were inoculated with 50 Tl of either PBS, 1% (w/v) nonoxynol-9, or 3% (w/v) 2-OH-βCD (20 mM). Each test solution also contained the membrane-impermeant DNA binding fluorescent dye, ethidium bromide homodimer-1 (20 TM, Molecular Probes; Eugene Oreg.; Hyytinen et al., supra, 1994). Fifteen min following exposure to the test agents the mice were euthanized, the vaginas were dissected and opened longitudinally, and viewed using a fluorescent microscope and TRITC filter set.
To examine the effect of a βCD on the vaginal epithelium, CF-1 mice were pretreated with progesterone and one week later were inoculated with 50 Tl of either phosphate buffered saline (PBS), 1% (w/v) nonoxynol-9, or 3% (w/v) 2-OH-βCD (20 mM) containing the membrane impermeant DNA binding fluorescent dye, ethidium bromide homodimer-1. The vaginas of the mice were viewed by fluorescent microscopy.

HIV = conditions: inhibition of sphingolipid synthesis; cited from earlier work

nonoxynol-9
Damage to vaginal epithelium (vaginal epithelium): considerable epithelial damage

CCCCCCCCCCCCCCCC(=O)NC(CN1CCOCC1)C(O)c1ccccc1 (centres unmarked) [PPMP, 1-phenyl-2-hexadecanoylamino-3-morpholino-1-propanol]
Reduction of HIV infection of CD4+ human cells (HIV): 50%
